Inhibition and melting point data for 34 molecules are collected here from article PMC9026348, “Investigation of Direct and Retro Chromone-2-Carboxamides Based Analogs of Pseudomonas aeruginosa Quorum Sensing Signal as New Anti-Biofilm Agents” (Pharmaceuticals, 2022).

Each structure is given as a SMILES string.

Data set [1] relates to P. aeruginosa PAO1 biofilms. The data set can be described thus: Anti-biofilm assay, CFU count of adherent cells. The data set is classed as cell-based, Pseudomonas aeruginosa PAO1. The note with it: Pseudomonas aeruginosa, PAO1, 48 h, relative to untreated control, mean ± SD of 3 independent experiments. How it is done:
The effect of all compounds was evaluated on PAO1 biofilms, grown in 24-well microplates. The antibiofilm assay used in this study is based on a low nutritive culture medium, a rather weak inoculum (10^2 CFU/mL), and a regular renewal of the culture medium (at 2, 4, 6, 20, and 24 h), in order to promote the growth of adhered cells as biofilm, instead of the growth and/or sedimentation of planktonic cells. Since the QS systems are involved in early steps of biofilm formation, compounds were added at t0. After incubation, viable cells were quantified by CFU plate counts.
The rather low concentration of 50 µM used was set up according to detected concentrations of QS molecules in CF patients’ lungs. […] For all compounds, MICs/MBCs were higher than 500 µM. To be considered active, a threshold of 50% inhibition, relative to the untreated control, was applied.
Pseudomonas aeruginosa PAO1 was obtained from the Institute Pasteur Collection (CIP 104116, Paris, France), frozen and kept at -80 °C in a 20% (v/v) glycerol stock solution. Before each experiment, two successive subcultures were prepared on trypticase soy agar and incubated for 24 h under aerobic conditions at 37 °C. Before each experiment, bacterial suspensions of 10^8 CFU/mL were prepared by adjusting OD at 640 nm to 0.150.
The bacterial enumerations were done on trypticase soy agar. The minimum biofilm broth used for biofilm formation (MBB) was prepared in sterile distilled water (SDW) and was composed of MgSO4·7H2O (0.02 g/L), FeSO4·7H2O (0.5 mg/L), Na2HPO4 (1.25 g/L), KH2PO4 (0.5 g/L), (NH4)2SO4 (0.1 g/L), and glucose (0.05 g/L) from Merck-Sigma (France).
The enumeration of adhered bacteria was carried-out according to Campanac et al. with some modifications. P. aeruginosa biofilms were grown in a 24-wells microtiter plate for 48 h. The culture medium was composed of BBM 2X (1.0 mL) and 1.0 mL of a 10^−4 M solution of tested compound dissolved in SDW (final concentration 50 µM). After inoculation with 100 µL of a 10^2 CFU/mL bacterial suspension of P. aeruginosa PAO1 (final inoculum 10 CFU/well), the microtiter plate was incubated à 37 °C. After 2 h, 4 h, 6 h, 20 h and 24 h of incubation, each well was emptied, rinsed twice with SDW, and the culture medium was renewed. After 48 h of culture, the biofilm was rinsed twice with 2.0 mL SDW. The bottom of each well was scraped with a sterile spatula and suspended in 1.0 mL of SDW. The content of each well was diluted by serial dilutions in test tubes. After inclusion of 0.9 mL of each dilution in trypticase soy agar, Petri dishes were incubated for 48 h at 37 °C. The number of colony forming units (CFUs) was counted and the inhibition percentage calculated using the following formula: Inhibition(%)=Adhered cellsControl(CFU/mL)−Adhered cellsSample(CFU/mL) /Adhered cellsControl×100

For orientation: inhibition means the drop in the measured response relative to a control, in per cent. Low values mean a weak effect, high ones a strong effect. The melting point is the temperature, or range, at which the solid turns liquid. The molecule `O=C(Nc1ccc(Cl)cc1)c1cc(=O)c2ccccc2o1` [3f, N-(4-Chlorophenyl)-4-oxo-4H-chromene-2-carboxamide] returned a melting point of 265 °C. Further, in data set [1], testing at 50 µM gave an inhibition of 25.9 ± 4.3%.

`Cc1ccc(C(=O)Nc2cc(=O)c3ccccc3o2)cc1` [6b, 4-Methyl-N-(4-oxo-4H-chromen-2-yl) benzamide] registered a melting point of 240 °C. In addition, in data set [1], testing at 50 µM gave an inhibition of 67 ± 3.6%.

Regarding `O=C(Nc1ccc(N2CCOCC2)cc1)c1cc(=O)c2ccccc2o1` [3u, N-(4-Morpholinophenyl)-4-oxo-4H-chromene-2-carboxamide], the melting point was 288 °C. In addition, in data set [1], 50 µM produced 51.2 ± 11.7% inhibition.

`CCN(CC)CCCC(C)NC(=O)c1cc(=O)c2ccccc2o1` (centres unmarked) [3′g, N-(5-(Diethylamino)pentan-2-yl)-4-oxo-4H-chromene-2-carboxamide] yielded a melting point of 110 °C. Further, the inhibition at 50 µM in data set [1] was 14.7 ± 2.1%.

`O=C(Nc1cc(=O)c2ccccc2o1)c1ccc(F)cc1` [6e, 4-Fluoro-N-(4-oxo-4H-chromen-2-yl) benzamide] came in with a melting point of 251 °C. The molecule further showed an inhibition at 50 µM in data set [1] of 65.3 ± 7.6%.

The molecule `O=C(Nc1ccc(Cn2ccnc2)cc1)c1cc(=O)c2ccccc2o1` [3′d, N-(4-((1H-Imidazol-1-yl)methyl)phenyl)-4-oxo-4H-chromene-2-carboxamide] had a melting point of 261 °C. In data set [1], this molecule had an inhibition at 50 µM of less than 10%.

For `O=C(Nc1ccc([N+](=O)[O-])cc1)c1cc(=O)c2ccccc2o1` [3m, N-(4-Nitrophenyl)-4-oxo-4H-chromene-2-carboxamide], the melting point stood at 307 °C. This molecule came in with an inhibition at 50 µM in data set [1] of 58.7 ± 2.5%.

`COc1ccccc1C(=O)Nc1cc(=O)c2ccccc2o1` [6q, 2-Methoxy-N-(4-oxo-4H-chromen-2-yl) benzamide] registered a melting point of 260 °C. Also, in data set [1], the inhibition at 50 µM came to 35.2 ± 6.8%.

Consider `O=C(Nc1ccc(F)cc1)c1cc(=O)c2ccccc2o1` [3e, N-(4-Fluorophenyl)-4-oxo-4H-chromene-2-carboxamide], for which the melting point was 211 °C. This molecule also had an inhibition at 50 µM in data set [1] of 73.3 ± 11%.

With `O=C(Nc1cc(=O)c2ccccc2o1)c1ccc(F)c(Cl)c1` [6l, 3-Chloro-4-fluoro-N-(4-oxo-4H-chromen-2-yl) benzamide], the melting point came to 224 °C. The molecule also gave an inhibition at 50 µM in data set [1] of 67.2 ± 5.2%.

`O=C(Nc1cc([N+](=O)[O-])cc([N+](=O)[O-])c1)c1cc(=O)c2ccccc2o1` [3o, N-(3,5-Dinitrophenyl)-4-oxo-4H-chromene-2-carboxamide] came in with a melting point of 312 °C. The same molecule displayed an inhibition at 50 µM in data set [1] of 43.8 ± 24.2%.

In the case of `CSc1ccccc1C(=O)Nc1cc(=O)c2ccccc2o1` [6r, 2-(Methylthio)-N-(4-oxo-4H-chromen-2-yl) benzamide], the melting point was determined as 218 °C. Further, at 50 µM the inhibition in data set [1] was 60.3 ± 15.8%.

Molecule `O=C(Nc1cc(=O)c2ccccc2o1)C1CCCCC1` [6x, N-(4-Oxo-4H-chromen-2-yl)cyclohexanecarboxamide] came in with a melting point of 241 °C. The molecule further showed an inhibition at 50 µM in data set [1] of 48.7 ± 5.3%.

In the case of `O=C(NC1CCCCC1)c1cc(=O)c2ccccc2o1` [3x, N-Cyclohexyl-4-oxo-4H-chromene-2-carboxamide], the melting point was found to be 179 °C. Also, the inhibition at 50 µM in data set [1] was determined as 32 ± 10.3%.

As for `O=C(NCCCn1ccnc1)c1cc(=O)c2ccccc2o1` [3′f, N-(3-(1H-Imidazol-1-yl)propyl)-4-oxo-4H-chromene-2-carboxamide], the melting point was determined as 171 °C. In data set [1], this molecule had an inhibition at 50 µM of less than 10%.

`COc1ccccc1NC(=O)c1cc(=O)c2ccccc2o1` [3q, N-(2-Methoxyphenyl)-4-oxo-4H-chromene-2-carboxamide] gave a melting point of 199 °C. In data set [1], the inhibition at 50 µM stood at 41.3 ± 5.7%.

`O=C(Nc1ccccc1Cl)c1cc(=O)c2ccccc2o1` [3i, N-(2-Chlorophenyl)-4-oxo-4H-chromene-2-carboxamide]: the melting point turned out to be 181 °C. The inhibition at 50 µM in data set [1] was 35.2 ± 14.8%.

`O=C(NC12CC3CC(CC(C3)C1)C2)c1cc(=O)c2ccccc2o1` [3y, N-((3S,5S,7S)-Adamantan-1-yl)-4-oxo-4H-chromene-2-carboxamide] registered a melting point of 201 °C. Moreover, at 50 µM the inhibition in data set [1] was 24.4 ± 8.8%.

Regarding `COc1ccc(NC(=O)c2cc(=O)c3ccccc3o2)cc1OC` [3s, N-(3,4-Dimethoxyphenyl)-4-oxo-4H-chromene-2-carboxamide], the melting point amounted to 229 °C. In addition, the inhibition at 50 µM in data set [1] was less than 10%.

`O=C(Nc1ccc(F)cc1Cl)c1cc(=O)c2ccccc2o1` [3k, N-(2-Chloro-4-fluorophenyl)-4-oxo-4H-chromene-2-carboxamide] gave a melting point of 229 °C. The molecule also returned an inhibition at 50 µM in data set [1] of 44.7 ± 9.4%.

In turn, `O=C(Nc1cc(=O)c2ccccc2o1)c1ccccc1Cl` [6i, 2-Chloro-N-(4-oxo-4H-chromen-2-yl) benzamide] displayed a melting point of 228 °C. The molecule further registered an inhibition at 50 µM in data set [1] of 59.3 ± 3.3%.

Take `CCCC(=O)Nc1cc(=O)c2ccccc2o1` [6w, N-(4-Oxo-4H-chromen-2-yl) butyramide]: the melting point stood at 212 °C. In data set [1], the inhibition at 50 µM amounted to 56.4 ± 7.2%.

As for `CSc1ccccc1NC(=O)c1cc(=O)c2ccccc2o1` [3r, N-(2-(Methylthio)phenyl)-4-oxo-4H-chromene-2-carboxamide], the melting point is 163 °C. The same molecule came in with an inhibition at 50 µM in data set [1] of 47.8 ± 5.7%.

Regarding `CCc1cccc(NC(=O)c2cc(=O)c3ccccc3o2)c1` [3′a, N-(3-Ethylphenyl)-4-oxo-4H-chromene-2-carboxamide], the melting point amounted to 168 °C. Further, in data set [1], the inhibition at 50 µM worked out at 70.5 ± 5.6%.

Regarding `O=C(Nc1ccc(F)c(Cl)c1)c1cc(=O)c2ccccc2o1` [3l, N-(3-Chloro-4-fluorophenyl)-4-oxo-4H-chromene-2-carboxamide], the melting point came out at 291 °C. The molecule also had an inhibition at 50 µM in data set [1] of less than 10%.

`O=C(Nc1cc(=O)c2ccccc2o1)c1ccccc1` [6a, N-(4-Oxo-4H-chromen-2-yl) benzamide]: the melting point is 218 °C. In data set [1], at 50 µM the inhibition was 73.6 ± 6.1%.

In turn, `O=C(Nc1ccccc1)c1cc(=O)c2ccccc2o1` [3a, 4-Oxo-N-phenyl-4H-chromene-2-carboxamide] came in with a melting point of 229 °C. The molecule further showed an inhibition at 50 µM in data set [1] of 21.4 ± 17%.

`O=C(Nc1ccccc1Br)c1cc(=O)c2ccccc2o1` [3j, N-(2-Bromophenyl)-4-oxo-4H-chromene-2-carboxamide] came in with a melting point of 195 °C. Moreover, in data set [1], the inhibition at 50 µM came out at 46.1 ± 10.2%.

Consider `O=C(Nc1cc(=O)c2ccccc2o1)c1ccc(F)cc1Cl` [6k, 2-Chloro-4-fluoro-N-(4-oxo-4H-chromen-2-yl) benzamide], for which the melting point came to 249 °C. This molecule also yielded an inhibition at 50 µM in data set [1] of 63.2 ± 9.3%.

In the case of `CCCc1ccc(C(=O)Nc2cc(=O)c3ccccc3o2)cc1` [6d, N-(4-Oxo-4H-chromen-2-yl)-4-propylbenzamide], the melting point turned out to be 229 °C. Further, 50 µM produced 69.9 ± 9.7% inhibition in data set [1].

`O=C(CN1CCN(C(=O)c2cc(=O)c3ccccc3o2)CC1)N1CCCC1` [3′i, 2-(4-(2-Oxo-2-(pyrrolidin-1-yl)ethyl)piperazine-1-carbonyl)-4H-chromen-4-one] had a melting point of 117 °C. Besides, the inhibition at 50 µM in data set [1] was determined as 10.8 ± 0.4%.

Molecule `COc1cc(OC)cc(C(=O)Nc2cc(=O)c3ccccc3o2)c1` [6t, 3,5-Dimethoxy-N-(4-oxo-4H-chromen-2-yl) benzamide] gave a melting point of 198 °C. In addition, the inhibition at 50 µM in data set [1] came to 43.8 ± 2.4%.

With `CCc1ccc(C(=O)Nc2cc(=O)c3ccccc3o2)cc1` [6c, 4-Ethyl-N-(4-oxo-4H-chromen-2-yl) benzamide], the melting point was 237 °C. The inhibition at 50 µM in data set [1] was found to be 63.1 ± 3%.

In turn, `CCCc1ccc(NC(=O)c2cc(=O)c3ccccc3o2)cc1` [3d, 4-Oxo-N-(4-propylphenyl)-4H-chromene-2-carboxamide] gave a melting point of 173 °C. The molecule further displayed an inhibition at 50 µM in data set [1] of 55.6 ± 18.3%.
